25 molecules from patent US10519177B2, “Heterocyclic compounds and uses thereof” (Plexxikon Inc., priority 2013, dated 2019) can be followed below.

Where only a bound is given, the exact number is not on record here.

For orientation: IC50 means the midpoint of a concentration-inhibition curve.

The test system of experiment [1] is bromodomain. Nature of the experiment: at least one of the bromodomain cell assays of Example 57. The class given is cell-based. As to conditions: at least one of the bromodomain cell assays described in Example 57; read-out: IC50 in at least one of the bromodomain cell assays.
For experiment [2], the target named is BRD4-BD12 (1-477) (Homo sapiens (Human), UniProt O60885). Nature of the experiment: Alphascreen binding assay BRD4-BD12. As to conditions: BRD4(1 2) H4; read-out: Biochemical activity (IC50 μM) BRD4(1 2) H4. An outline of the steps: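 In this competition format, compounds displace a biotinylated tetra-acetyl H4 peptide from E. coli-expressed human BRD4 bromodomain constructs captured on nickel chelate beads. The reaction runs at pH 7.5 with 2 mM DTT and detergent for 1 h at room temperature before a 30 min bead step.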

The test system of experiment [3] is MV-4-11 cells. The experiment is described as follows: Oncology cell growth assay MV-4-11 (CellTiter Glo). The class given is cell-based. As to conditions: Homo sapiens, MV4-11, 72 h; MV-4-11, 3d growth; read-out: Cell activity (IC50 μM) MV-4-11 3d-Growth. An outline of the steps: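 Growth read by CellTiter Glo luminescence after 72 h compound treatment of MLL-AF4-bearing MV-4-11 cells (3000/well). Titration: 8 points, 1:3 steps, maximum 10 μM, 0.2% DMSO final. Data normalized to DMSO wells, four-parameter fit gives pIC50.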
(Cellular ATP, detected with luciferase, serves as a proxy for viable cell number.)

Consider `COC(=O)Cc1ccc(-c2cn(CC3CCCC3)c3cc(-c4c(C)noc4C)cnc23)cc1` [P-0588, methyl 2-[4-[1-(cyclopentylmethyl)-6-(3,5-dimethylisoxazol-4-yl)pyrrolo[3,2-b]pyridin-3-yl]phenyl]acetate], for which the figures for the concentration for half-maximal inhibition (IC50) in experiment [1], in experiment [2] and in experiment [3] were less than 10000 nM, less than 1 µM and less than 1 µM, respectively.

Regarding `COC(=O)Cc1ccc(-c2cn(CC3CCCCC3)c3cc(-c4c(C)noc4C)cnc23)cc1` [P-0589, methyl 2-[4-[1-(cyclohexylmethyl)-6-(3,5-dimethylisoxazol-4-yl)pyrrolo[3,2-b]pyridin-3-yl]phenyl]acetate], the results for the IC50 in experiment [1], in experiment [2] and in experiment [3] were less than 10000 nM, less than 1 µM and less than 1 µM, respectively.

Turning to `Cc1noc(C)c1-c1cnc2c(-c3ccc(CC(=O)O)cc3)cn(CC3CCCCC3)c2c1` [P-0590, 2-[4-[1-(cyclohexylmethyl)-6-(3,5-dimethylisoxazol-4-yl)pyrrolo[3,2-b]pyridin-3-yl]phenyl]acetic acid], the results for the IC50 in experiment [1], in experiment [2] and in experiment [3] were less than 10000 nM, less than 1 µM and less than 1 µM, respectively.

In the case of `Cc1noc(C)c1-c1cnc2c(-c3ccc(CC(=O)O)cc3)cn(CC3CCCC3)c2c1` [P-0591, 2-[4-[1-(cyclopentylmethyl)-6-(3,5-dimethylisoxazol-4-yl)pyrrolo[3,2-b]pyridin-3-yl]phenyl]acetic acid], the results for the IC50 in experiment [1], in experiment [2] and in experiment [3] were less than 10000 nM, less than 1 µM and less than 1 µM, respectively.

For `Cc1noc(C)c1-c1cnc2c(-c3ccc(C#N)cc3)cn(C(c3ccccn3)c3ccccn3)c2c1` [P-0592, 4-[1-[bis(2-pyridyl)methyl]-6-(3,5-dimethylisoxazol-4-yl)pyrrolo[3,2-b]pyridin-3-yl]benzonitrile], the IC50 was less than 10000 nM in experiment [1], less than 1 µM in experiment [2] and less than 1 µM in experiment [3].

For the molecule `Cc1noc(C)c1-c1cnc2c(-c3cnn(C)c3)cn(C(c3ccccn3)c3ccccn3)c2c1` [P-0593, 4-[1-[bis(2-pyridyl)methyl]-3-(1-methylpyrazol-4-yl)pyrrolo[3,2-b]pyridin-6-yl]-3,5-dimethyl-isoxazole], the IC50 in experiment [1] was less than 10000 nM; in experiment [2], less than 1 µM; in experiment [3], less than 1 µM.

With `Cc1noc(C)c1-c1cnc2c(-c3ccc(C#N)nc3)cn(CC3CCC(F)(F)CC3)c2c1` [P-0594, 5-[1-[(4,4-difluorocyclohexyl)methyl]-6-(3,5-dimethylisoxazol-4-yl)pyrrolo[3,2-b]pyridin-3-yl]pyridine-2-carbonitrile], the IC50 in experiment [1] was less than 10000 nM; in experiment [2], less than 1 µM; in experiment [3], less than 1 µM.

`Cc1noc(C)c1-c1cnc2c(-c3ccc(C#N)nc3)cn([C@@H](C)c3ccccn3)c2c1` [P-0595, 5-[6-(3,5-dimethylisoxazol-4-yl)-1-[(1S)-1-(2-pyridyl)ethyl]pyrrolo[3,2-b]pyridin-3-yl]pyridine-2-carbonitrile]: the IC50 was less than 10000 nM in experiment [1], less than 1 µM in experiment [2] and less than 1 µM in experiment [3].

In the case of `Cc1noc(C)c1-c1cnc2c(-c3ccc(B(O)O)cc3)cn(CC3CCC(F)(F)CC3)c2c1` [P-0596, [4-[1-[(4,4-difluorocyclohexyl)methyl]-6-(3,5-dimethylisoxazol-4-yl)pyrrolo[3,2-b]pyridin-3-yl]phenyl]boronic acid], the IC50 in experiment [1] was less than 10000 nM; in experiment [2], less than 1 µM; in experiment [3], less than 1 µM.

Turning to `Cc1noc(C)c1-c1cnc2c(-c3ccc(C#N)nc3)cn(C(c3ccccn3)c3ccccn3)c2c1` [P-0597, 5-[1-[bis(2-pyridyl)methyl]-6-(3,5-dimethylisoxazol-4-yl)pyrrolo[3,2-b]pyridin-3-yl]pyridine-2-carbonitrile], the IC50 in experiment [1] was less than 10000 nM; in experiment [2], less than 1 µM; in experiment [3] it was less than 1 µM.

Take `Cc1noc(C)c1-c1cnc2c(-c3ccc([N+](=O)[O-])cc3)cn(CC3CCC(F)(F)CC3)c2c1` [P-0598, 4-[1-[(4,4-difluorocyclohexyl)methyl]-3-(4-nitrophenyl)pyrrolo[3,2-b]pyridin-6-yl]-3,5-dimethyl-isoxazole]: the IC50 in experiment [1] was less than 10000 nM; in experiment [2], less than 1 µM; in experiment [3], less than 1 µM.

In the case of `Cc1noc(C)c1-c1cnc2c(-c3ccc([N+](=O)[O-])nc3)cn(CC3CCC(F)(F)CC3)c2c1` [P-0599, 4-[1-[(4,4-difluorocyclohexyl)methyl]-3-(6-nitro-3-pyridyl)pyrrolo[3,2-b]pyridin-6-yl]-3,5-dimethyl-isoxazole], the IC50 in experiment [1] is less than 10000 nM; in experiment [2] it was less than 1 µM; in experiment [3], less than 1 µM.

As for `Cc1noc(C)c1-c1cnc2c(-c3ccc(C=O)cc3)cn(CC3CCC(F)(F)CC3)c2c1` [P-0600, 4-[1-[(4,4-difluorocyclohexyl)methyl]-6-(3,5-dimethylisoxazol-4-yl)pyrrolo[3,2-b]pyridin-3-yl]benzaldehyde], the values for the IC50 in experiment [1], in experiment [2] and in experiment [3] were less than 10000 nM, less than 1 µM and less than 1 µM, respectively.

As for `Cc1noc(C)c1-c1cnc2c(-c3ccc(CO)cc3)cn(CC3CCC(F)(F)CC3)c2c1` [P-0601, [4-[1-[(4,4-difluorocyclohexyl)methyl]-6-(3,5-dimethylisoxazol-4-yl)pyrrolo[3,2-b]pyridin-3-yl]phenyl]methanol], the IC50 in experiment [1] is less than 10000 nM; in experiment [2] it was less than 1 µM; in experiment [3], less than 1 µM.

With `COC(=O)c1ccc(-c2cn(CC3CC4(CCC4)C3)c3cc(-c4c(C)noc4C)cnc23)cc1` [P-0602, methyl 4-[6-(3,5-dimethylisoxazol-4-yl)-1-(spiro[3.3]heptan-6-ylmethyl)pyrrolo[3,2-b]pyridin-3-yl]benzoate], the results for the IC50 in experiment [1], in experiment [2] and in experiment [3] were less than 10000 nM, less than 1 µM and less than 1 µM, respectively.

In the case of `Cc1ccc(-c2cn(CC3CCC(F)(F)CC3)c3cc(-c4c(C)noc4C)cnc23)cc1` [P-0604, 4-[1-[(4,4-difluorocyclohexyl)methyl]-3-(p-tolyl)pyrrolo[3,2-b]oyridin-6-yl]-3,5-dimethyl-isoxazole], the IC50 in experiment [1] is less than 10000 nM; in experiment [2], less than 1 µM; in experiment [3], less than 1 µM.

Take `COc1cc(-c2cn(CC3CCCCC3)c3cc(-c4c(C)noc4C)cnc23)ccc1C(=O)O` [P-0700, 4-[1-(cyclohexylmethyl)-6-(3,5-dimethylisoxazol-4-yl)pyrrolo[3,2-b]pyridin-3-yl]-2-methoxy-benzoic acid]: the IC50 in experiment [1] was less than 10000 nM; in experiment [2], less than 1 µM; in experiment [3] it was less than 1 µM.

`COCc1ccc(-c2cn(CC3CCCCC3)c3cc(-c4c(C)noc4C)cnc23)cc1` [P-0705, 4-[1-(cyclohexylmethyl)-3-[4-(methoxymethyl)phenyl]pyrrolo[3,2-b]pyridin-6-yl]-3,5-dimethyl-isoxazole]: the IC50 was less than 10000 nM in experiment [1], less than 1 µM in experiment [2] and less than 1 µM in experiment [3].

With `Cc1noc(C)c1-c1cnc2c(-c3ccc(C(=O)OC(C)C)cc3)cn(CC3CCCCC3)c2c1` [P-0708, isopropyl 4-[1-(cyclohexylmethyl)-6-(3,5-dimethylisoxazol-4-yl)pyrrolo[3,2-b]pyridin-3-yl]benzoate], the IC50 in experiment [1] was less than 10000 nM; in experiment [2] it was less than 1 µM; in experiment [3], less than 1 µM.

As to `Cc1noc(C)c1-c1cnc2c(-c3ccc([N+](=O)[O-])nc3)cn(CC3CCCCC3)c2c1` [P-0710, 4-[1-(cyclohexylmethyl)-3-(6-nitro-3-pyridyl)pyrrolo[3,2-b]pyridin-6-yl]-3,5-dimethyl-isoxazole], the figures for the IC50 in experiment [1], in experiment [2] and in experiment [3] were less than 10000 nM, less than 1 µM and less than 1 µM, respectively.

On to `Cc1noc(C)c1-c1cnc2c(-c3ccc(C(=O)O)cc3)cn([C@@H](c3ccccc3)c3ccccn3)c2c1` [P-0711, 4-[6-(3,5-dimethylisoxazol-4-yl)-1-[(S)-phenyl(2-pyridyl)methyl]pyrrolo[3,2-b]pyridin-3-yl]benzoic acid], for which the IC50 in experiment [1] is less than 10000 nM; in experiment [2], less than 1 µM; in experiment [3] it was less than 1 µM.

With `Cc1noc(C)c1-c1cnc2c(-c3ccc(C(=O)O)cc3)cn([C@H](c3ccccc3)c3ccccn3)c2c1` [P-0722, 4-[6-(3,5-dimethylisoxazol-4-yl)-1-[(R)-phenyl(2-pyridyl)methyl]pyrrolo[3,2-b]pyridin-3-yl]benzoic acid], the figures for the half-maximal inhibitory concentration (IC50) in experiment [1], in experiment [2] and in experiment [3] were less than 10000 nM, less than 1 µM and less than 1 µM, respectively.

In the case of `Cc1noc(C)c1-c1cnc2c(-c3ccc(C(=O)O)cc3)cn(CC3(C)CCOCC3)c2c1` [P-0774, 4-[6-(3,5-dimethylisoxazol-4-yl)-1-[(4-methyltetrahydropyran-4-yl)methyl]pyrrolo[3,2-b]pyridin-3-yl]benzoic acid], the IC50 is less than 10000 nM in experiment [1], less than 1 µM in experiment [2] and less than 1 µM in experiment [3].

Turning to `COc1cc(-c2cn(CC3(C)CCOCC3)c3cc(-c4c(C)noc4C)cnc23)ccc1C(=O)O` [P-0775, 4-[6-(3,5-dimethylisoxazol-4-yl)-1-[(4-methyltetrahydrpyran-4-yl)methyl]pyrrolo[3,2-b]pyridin-3-yl]-2-methoxy-benzoic acid], the IC50 is less than 10000 nM in experiment [1], less than 1 µM in experiment [2] and less than 1 µM in experiment [3].

Consider `Cc1noc(C)c1-c1cnc2c(-c3ccc(CC(=O)O)cc3)cn(CC3(C)CCOCC3)c2c1` [P-0776, 2-[4-[6-(3,5-dimethylisoxazol-4-yl)-1-[(4-methyltetrahydrpyran-4-yl)methyl]pyrrolo[3,2-b]pyridin-3-yl]phenyl]acetic acid], for which the figures for the IC50 in experiment [1], in experiment [2] and in experiment [3] were less than 10000 nM, less than 1 µM and 1 to 10 µM, respectively.
